Measured values reported in US10947242B2, “[1,2,4]triazolo[1,5and#8208;A]pyrimidine compounds as PDE2 inhibitors” (Janssen Pharmaceutica NV, priority 2016, dated 2021).
Read-outs that look alike come from different tables or passages of the source.

Tests used:
[1] = target: T1, Human recombinant PDE3A (hPDE3A) (Homo sapiens, UniProt Q14432); test: In vitro assay PDE3A (SPA, 3H-cAMP hydrolysis); format: biochemical; conditions: for IC50: hPDE3B pIC50, read-out: pIC50 (converted); for Emax: read-out: hPDE3B Emax, read-out: Emax;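 as to all read-outs here: the method names PDE3A and the table heading PDE3B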
T1 construct: purchased Scottish Biomedical; host or cells: Sf9 insect cells
Procedure, shortened: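 Radiometric SPA measuring [3H]-cAMP hydrolysis (0.4 μM cAMP, 2.4 μCi/ml) over 60 min at room temperature, in Tris pH 7.8 buffer with MgCl2 and EGTA, 1% DMSO. Enzyme: recombinant human brain PDE3A expressed in Sf9 cells, used as partially purified lysate. Counts compared with enzyme-free blanks and vehicle controls.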

[2] = target: T2, Human recombinant PDE10A (hPDE10A) (Homo sapiens, UniProt Q9Y233); test: In vitro assay PDE10A, human clone (SPA, 3H-cAMP hydrolysis); format: biochemical
T2 construct: His tag (inferred from metal chelate purification); made in house; host or cells: Sf9 insect cells (baculovirus)
Procedure, shortened: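 Hydrolysis of 3H-cAMP (60 nM cAMP, 0.008 μCi tracer) proceeded for 60 min at room temperature, with the product detected by SPA bead scintillation counting. The enzyme was hPDE10A from baculovirus-infected Sf9 cells in Tris pH 7.8 buffer with MgCl2 and EGTA, and compounds were at 1% DMSO final. Blanks lacked enzyme.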

[3] = target: T3, Human recombinant PDE2A (hPDE2A) (Homo sapiens, UniProt O00408); test: In vitro assay PDE2A (SPA, 3H-cGMP hydrolysis); format: biochemical; conditions: for Emax: read-out: hPDE2A Emax
T3 construct: His tag (inferred from metal chelate purification); made in house; host or cells: Sf9 insect cells (baculovirus)

[4] = human clone (h), default, read-out: hPDE10A2 Emax
[5] = human clone (h), default, read-out: hPDE10A2 pIC50 (converted)
[6] = human clone by default (no (r) mark), read-out: hPDE10A2 or rPDE10A2 Emax
[7] = human clone by default (no (r) mark), read-out: hPDE10A2 or rPDE10A2 pIC50 (converted)
[8] = hPDE2A pIC50, human recombinant PDE2A, 10 μM cGMP substrate
[9] = read-out: hPDE2A pIC50 (converted)
[10] = human recombinant PDE2A, 10 μM cGMP substrate, read-out: hPDE2A pIC50 (converted)

T3 sequence (O00408 whole entry): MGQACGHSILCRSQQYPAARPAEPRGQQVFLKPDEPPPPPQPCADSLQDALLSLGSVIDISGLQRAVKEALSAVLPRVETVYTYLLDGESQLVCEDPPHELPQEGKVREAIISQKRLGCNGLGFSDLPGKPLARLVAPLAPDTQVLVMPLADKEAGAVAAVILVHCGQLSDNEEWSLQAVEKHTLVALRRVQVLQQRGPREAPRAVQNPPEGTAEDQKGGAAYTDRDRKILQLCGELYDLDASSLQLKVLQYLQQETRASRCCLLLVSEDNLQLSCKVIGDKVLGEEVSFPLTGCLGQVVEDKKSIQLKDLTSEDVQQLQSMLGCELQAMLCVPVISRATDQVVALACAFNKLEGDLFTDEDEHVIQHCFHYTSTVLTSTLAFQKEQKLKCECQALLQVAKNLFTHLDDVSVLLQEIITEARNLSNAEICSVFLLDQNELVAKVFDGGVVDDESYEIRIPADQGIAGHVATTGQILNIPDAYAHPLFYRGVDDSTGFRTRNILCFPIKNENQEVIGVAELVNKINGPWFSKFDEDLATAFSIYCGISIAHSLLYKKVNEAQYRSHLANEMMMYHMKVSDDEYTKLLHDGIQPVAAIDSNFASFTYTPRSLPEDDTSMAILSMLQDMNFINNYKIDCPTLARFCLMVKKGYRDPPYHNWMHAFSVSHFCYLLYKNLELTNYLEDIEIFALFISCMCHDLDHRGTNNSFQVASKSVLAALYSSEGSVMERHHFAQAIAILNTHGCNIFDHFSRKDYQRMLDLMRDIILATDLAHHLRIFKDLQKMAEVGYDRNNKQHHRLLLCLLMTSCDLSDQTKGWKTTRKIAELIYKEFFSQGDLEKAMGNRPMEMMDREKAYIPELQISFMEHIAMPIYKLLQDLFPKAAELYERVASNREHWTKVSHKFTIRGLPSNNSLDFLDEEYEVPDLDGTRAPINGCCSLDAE
T1 sequence (Q14432 whole entry): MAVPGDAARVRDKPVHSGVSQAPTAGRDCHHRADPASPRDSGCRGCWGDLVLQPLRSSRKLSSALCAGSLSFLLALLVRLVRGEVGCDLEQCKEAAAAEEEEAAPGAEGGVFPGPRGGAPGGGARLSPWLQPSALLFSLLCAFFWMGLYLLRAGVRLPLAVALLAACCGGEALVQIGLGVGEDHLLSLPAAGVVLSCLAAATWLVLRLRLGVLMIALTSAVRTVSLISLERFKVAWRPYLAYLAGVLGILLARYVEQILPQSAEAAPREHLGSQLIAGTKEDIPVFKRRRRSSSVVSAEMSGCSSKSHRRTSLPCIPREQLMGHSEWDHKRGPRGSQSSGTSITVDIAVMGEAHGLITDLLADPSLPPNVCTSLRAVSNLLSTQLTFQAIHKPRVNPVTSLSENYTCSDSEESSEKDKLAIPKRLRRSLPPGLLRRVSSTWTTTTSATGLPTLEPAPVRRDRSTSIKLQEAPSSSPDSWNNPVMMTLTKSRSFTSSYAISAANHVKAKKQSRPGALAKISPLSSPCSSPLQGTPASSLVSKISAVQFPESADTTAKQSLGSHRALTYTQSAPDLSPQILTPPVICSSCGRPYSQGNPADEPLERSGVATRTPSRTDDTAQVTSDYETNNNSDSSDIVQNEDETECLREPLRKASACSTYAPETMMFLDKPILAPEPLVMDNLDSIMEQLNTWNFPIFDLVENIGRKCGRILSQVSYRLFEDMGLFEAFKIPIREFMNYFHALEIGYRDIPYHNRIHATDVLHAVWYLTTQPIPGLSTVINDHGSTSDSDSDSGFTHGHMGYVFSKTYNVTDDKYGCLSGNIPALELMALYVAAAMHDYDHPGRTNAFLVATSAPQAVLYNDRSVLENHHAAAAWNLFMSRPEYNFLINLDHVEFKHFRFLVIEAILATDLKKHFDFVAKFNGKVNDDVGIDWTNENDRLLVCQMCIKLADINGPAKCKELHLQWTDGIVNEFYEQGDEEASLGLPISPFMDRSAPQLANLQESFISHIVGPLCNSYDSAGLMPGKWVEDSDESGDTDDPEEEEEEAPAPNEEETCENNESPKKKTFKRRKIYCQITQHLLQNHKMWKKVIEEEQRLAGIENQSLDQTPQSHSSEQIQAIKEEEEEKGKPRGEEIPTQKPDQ
T2 sequence (Q9Y233 267-1055): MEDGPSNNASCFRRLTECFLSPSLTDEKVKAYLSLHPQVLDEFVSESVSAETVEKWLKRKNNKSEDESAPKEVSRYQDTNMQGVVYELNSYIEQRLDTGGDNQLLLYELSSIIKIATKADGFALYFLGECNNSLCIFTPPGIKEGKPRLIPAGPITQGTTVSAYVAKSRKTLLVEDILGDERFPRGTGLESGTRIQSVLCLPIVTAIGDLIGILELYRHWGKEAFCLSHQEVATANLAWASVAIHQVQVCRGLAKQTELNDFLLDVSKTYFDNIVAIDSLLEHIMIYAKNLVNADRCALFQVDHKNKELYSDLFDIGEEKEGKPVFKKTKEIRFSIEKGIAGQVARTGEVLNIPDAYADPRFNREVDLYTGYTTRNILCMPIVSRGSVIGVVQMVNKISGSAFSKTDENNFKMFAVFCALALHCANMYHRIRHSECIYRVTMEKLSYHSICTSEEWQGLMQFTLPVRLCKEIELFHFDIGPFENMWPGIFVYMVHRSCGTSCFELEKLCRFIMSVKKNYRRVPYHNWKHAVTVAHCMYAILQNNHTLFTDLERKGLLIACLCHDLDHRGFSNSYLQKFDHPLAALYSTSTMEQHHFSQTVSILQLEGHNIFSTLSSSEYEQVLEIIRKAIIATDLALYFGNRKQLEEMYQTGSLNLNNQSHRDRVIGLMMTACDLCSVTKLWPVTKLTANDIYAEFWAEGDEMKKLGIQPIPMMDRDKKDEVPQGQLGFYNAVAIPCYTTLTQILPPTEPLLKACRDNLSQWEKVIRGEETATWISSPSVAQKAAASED

| Compound | IC50 [1] [µM] | Emax [1] [%] | melting point [°C] | Emax [2, 4] [%] | IC50 [2, 5] [µM] | Emax [2, 6] [%] | IC50 [2, 7] [µM] | IC50 ([3]; hPDE2A pIC50) [µM] | IC50 [3, 8] [µM] | Emax [3] [%] | IC50 [3, 9] [µM] | IC50 [3, 10] [µM] | Emax ([3]; human recombinant PDE2A) [%] |
| --- | --- | --- | --- | --- | --- | --- | --- | --- | --- | --- | --- | --- | --- |
| Cc1cc(C)cc(C(=O)N2CC[C@H](C)[C@@H](c3cc(C(F)F)nc4ncnn34)C2)c1 [Compound 214] | > 10 | 9 | 203.97 | 30 | > 10 | 30 | > 10 | 6.31 | 6.31 | 9 |  |  |  |
| CC(C)n1ccc2cc(C(=O)N3[C@H]4CC[C@H](c5cc(C(F)F)nc6ncnn56)[C@@H]3CC4)ccc21 [Compound 355] | 0.724 | 98 | 146.08 |  |  | 98 | 0.234 |  |  | 99 | 0.000933 |  |  |
| Cc1cc(C(=O)N2[C@H]3CC[C@H](c4cc(C(F)F)nc5ncnn45)[C@@H]2CC3)ccc1Cl [Compound 375] | 4.47 | 73 | 171.51 |  |  | 94 | 0.813 |  |  | 101 | 0.00355 |  |  |
| Cc1cc(C(=O)N2CC[C@@H](C)[C@H](c3cc(C)nc4ncnn34)C2)cc(C2CC2)n1 [Compound 23] | 1.05 | 90 | 169.13 | 100 | 0.00708 |  |  | 0.000468 | 0.000468 | 101 |  |  |  |
| Cc1cc([C@@H]2CN(C(=O)c3cc(Cl)ncc3Cl)CC[C@H]2C)n2ncnc2n1 [Compound 271] | 7.41 | 61 | 247.4 | 95 | 0.162 | 95 | 0.162 |  |  | 99 | 0.00295 |  |  |
| C[C@@H]1CCN(C(=O)c2cnc3ccccc3c2)C[C@H]1c1cc(C(F)F)nc2ncnn12 [Compound 324] | 0.263 | 97 | 204.06 |  |  | 100 | 0.0661 |  |  | 100 | 0.000851 |  |  |
| Cc1cc(C)cc(C(=O)N2CCC[C@](C)(c3cc(C(F)F)nc4ncnn34)C2)c1 (single isomer, unassigned) [Compound 206] | > 10 | -1 | 145.73 | 16 | > 10 |  |  |  |  | 39 | 1.66 | 1.66 | 39 |
| C[C@@H]1CCN(C(=O)c2ccc3ncccc3c2)C[C@H]1c1cc(C(F)F)nc2ncnn12 [Compound 322] | 0.479 | 95 | 180.27 |  |  | 99 | 0.0186 |  |  | 100 | 0.000501 |  |  |
| C[C@@H]1CCN(C(=O)c2ccc(F)c(C(F)(F)F)c2)C[C@H]1c1cc(C(F)F)nc2ncnn12 [Compound 194] | 4.57 | 57 | 167.52 | 97 | 0.263 |  |  |  |  | 99 | 0.0186 | 0.0186 | 99 |
| C[C@@H]1CCN(C(=O)c2ccc3ccccc3c2)C[C@H]1c1cc(C(F)F)nc2ncnn12 [Compound 331] | 0.0501 | 99 | 193.87 |  |  | 100 | 0.0145 |  |  | 98 | 0.000479 |  |  |
| O=C(c1ccc(F)c(Cl)c1)N1[C@H]2CC[C@H](c3cc(C(F)F)nc4ncnn34)[C@@H]1CC2 [Compound 377] | 9.77 | 47 | 183.67 |  |  | 89 | 1.29 |  |  | 99 | 0.0178 |  |  |
| O=C(c1cn2ccsc2n1)N1[C@H]2CC[C@H](c3cc(C(F)F)nc4ncnn34)[C@@H]1CC2 [Compound 360] | 8.51 | 50 | 264.8 |  |  | 55 | 6.92 |  |  | 97 | 0.0407 |  |  |
| Cc1cc(C)nc(C(=O)N2CC[C@@H](C)[C@H](c3cc(C(F)F)nc4ncnn34)C2)c1 [Compound 137] | > 10 | 35 | 229.91 | 84 | 1.35 |  |  |  |  | 100 | 0.0282 | 0.0282 | 100 |
| Cc1ccc(C(=O)N2CCC[C@](C)(c3cc(C(F)F)nc4ncnn34)C2)c(C)n1 (single isomer, unassigned) [Compound 210] | > 10 | 5 | 195.81 | 16 | > 10 |  |  |  |  | 56 | 0.617 | 0.617 | 56 |
| C[C@]1(c2cc(C(F)F)nc3ncnn23)CCCN(C(=O)c2ccc3occc3c2)C1 (single isomer, unassigned) [Compound 209] | > 10 | 25 | 145.19 | 7 | > 10 |  |  |  |  | 57 | 0.724 | 0.724 | 57 |
| Cc1nn(C)cc1C(=O)N1CCC[C@](C)(c2cc(C(F)F)nc3ncnn23)C1 (single isomer, unassigned) [Compound 207] | > 10 | 2 | 173.79 | -5 | > 10 |  |  |  |  | 21 | 7.94 | 7.94 | 21 |
| Cc1csc(C(=O)N2CC[C@H](C)[C@@H](c3cc(C(F)F)nc4ncnn34)C2)c1 [Compound 213] | > 10 | 11 | 169.7 | 23 | > 10 |  |  |  |  | 28 | 2.34 | 2.34 | 28 |
| Cc1cc(C(=O)N2CCC[C@](C)(c3cc(C(F)F)nc4ncnn34)C2)cc(C)n1 (single isomer, unassigned) [Compound 211] | > 10 | 13 | 117.5 | 10 | > 10 |  |  |  |  | 3 | > 10 | > 10 | 3 |
| C[C@@H]1CCN(C(=O)c2ccc(Cl)c(Cl)c2)C[C@H]1c1cc(C(F)F)nc2ncnn12 [Compound 111] | 1.05 | 92 | 188.75 | 99 | 0.038 |  |  |  |  | 100 | 0.000977 | 0.000977 | 100 |
| COc1ccc(C(=O)N2[C@H]3CC[C@H](c4cc(C(F)F)nc5ncnn45)[C@@H]2CC3)cc1Cl [Compound 376] | 3.39 | 79 | 175.71 |  |  | 97 | 0.309 |  |  | 101 | 0.00427 |  |  |
| COc1cc(C(=O)N2CC[C@@H](C)[C@H](c3cc(C(F)F)nc4ncnn34)C2)ccc1C1CC1 [Compound 118] | 0.955 | 92 | 179.82 | 99 | 0.0741 |  |  |  |  | 101 | 0.00166 | 0.00166 | 101 |
